Assay results taken from patent publication US10835532B2, “Muscarinic agonists as cognitive enhancers” (The University of Toledo, priority 2008, dated 2020).
pEC50: −log10 of the molar value.

Assays:
[1] = Messer et al. 2002; cited from earlier work
M1 receptors = target: T1, M1 receptors (Homo sapiens, UniProt P11229); experiment: PI metabolism in A9 L cells expressing M1 receptors; assay type: cell-based; settings: M1 receptors expressed in A9 L cells
T1 construct: expressed in transfected cells; host or cells: A9 L cells
T1 sequence (P11229 1-460): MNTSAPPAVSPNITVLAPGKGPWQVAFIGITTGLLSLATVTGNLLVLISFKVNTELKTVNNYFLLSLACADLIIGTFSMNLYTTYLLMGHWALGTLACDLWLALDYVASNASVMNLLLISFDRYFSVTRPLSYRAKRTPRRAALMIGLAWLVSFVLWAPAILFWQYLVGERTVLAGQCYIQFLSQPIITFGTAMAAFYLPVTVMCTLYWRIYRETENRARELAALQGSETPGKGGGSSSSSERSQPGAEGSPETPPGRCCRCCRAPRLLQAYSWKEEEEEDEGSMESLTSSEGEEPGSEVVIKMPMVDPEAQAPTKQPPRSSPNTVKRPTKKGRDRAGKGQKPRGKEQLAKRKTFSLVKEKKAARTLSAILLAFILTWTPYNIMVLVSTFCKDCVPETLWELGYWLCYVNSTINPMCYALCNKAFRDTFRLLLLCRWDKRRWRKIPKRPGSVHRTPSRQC
Procedure: (§1) The observed functional selectivity of CDD-0102A is unique among compounds purported to be selective M1 agonists. […] The lack of selectivity likely contributes to the high incidence of adverse effects observed when the compounds are administered to humans. To assess selectivity for muscarinic receptors, the ability of CDD-0102A to activate responses was compared with the nonselective, full agonist carbachol at each muscarinic receptor subtype. In cultured cell lines expressing individual muscarinic receptor subtypes, phosphoinositide (PI) metabolism studies assessed activity at M1, M3 and M5 receptors, while measures of cAMP levels examined M2 and M4 receptor activity. […] CDD-0102 was not active when M5 receptors were expressed at low levels in A9 L cells. […] Thus, CDD-0102 is a functionally-selective M1 agonist with weaker activity at M5 receptors, very weak activity at M3 receptor and no activity at M2 or M4 receptors.

M4 receptors = target: T2, M4 receptors (Homo sapiens, UniProt P08173); experiment: Inhibition of adenylyl cyclase activity (cAMP levels) in CHO cells expressing M4 receptors; assay type: cell-based
T2 construct: expressed in transfected cells; host or cells: CHO cells
T2 sequence (P08173 1-479): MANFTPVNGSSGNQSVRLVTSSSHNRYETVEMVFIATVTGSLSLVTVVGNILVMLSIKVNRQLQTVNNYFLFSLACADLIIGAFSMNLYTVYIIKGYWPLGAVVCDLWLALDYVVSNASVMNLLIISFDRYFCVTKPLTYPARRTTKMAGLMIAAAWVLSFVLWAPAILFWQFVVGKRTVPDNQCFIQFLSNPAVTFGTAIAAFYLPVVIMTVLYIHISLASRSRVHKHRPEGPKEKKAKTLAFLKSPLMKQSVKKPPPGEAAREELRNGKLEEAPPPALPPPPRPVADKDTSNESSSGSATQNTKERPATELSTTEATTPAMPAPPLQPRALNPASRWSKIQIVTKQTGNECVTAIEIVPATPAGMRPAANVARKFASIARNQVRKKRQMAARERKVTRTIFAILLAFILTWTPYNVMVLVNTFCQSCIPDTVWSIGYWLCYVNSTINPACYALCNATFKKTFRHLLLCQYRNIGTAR
Procedure: as §1

M2 receptors = target: T3, M2 receptors (Homo sapiens, UniProt P08172); experiment: Inhibition of adenylyl cyclase activity (cAMP levels) in A9 L cells expressing M2 receptors; assay type: cell-based
T3 construct: expressed in transfected cells; host or cells: A9 L cells
T3 sequence (P08172 1-466): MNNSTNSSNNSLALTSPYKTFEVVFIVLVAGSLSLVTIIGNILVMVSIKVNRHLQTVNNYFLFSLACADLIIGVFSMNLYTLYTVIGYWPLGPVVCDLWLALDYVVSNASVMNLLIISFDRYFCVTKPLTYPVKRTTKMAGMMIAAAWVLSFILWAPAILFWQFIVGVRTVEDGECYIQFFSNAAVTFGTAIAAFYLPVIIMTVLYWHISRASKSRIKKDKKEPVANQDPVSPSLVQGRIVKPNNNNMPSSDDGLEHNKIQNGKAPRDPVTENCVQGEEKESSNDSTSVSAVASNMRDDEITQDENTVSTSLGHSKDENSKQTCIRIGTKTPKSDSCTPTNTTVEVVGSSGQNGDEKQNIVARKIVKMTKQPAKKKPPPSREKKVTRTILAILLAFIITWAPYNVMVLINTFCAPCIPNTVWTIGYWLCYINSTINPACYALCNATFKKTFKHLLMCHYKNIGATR
Procedure: as §1

M3 receptors = target: T4, M3 receptors (Homo sapiens, UniProt P20309); experiment: PI metabolism in A9 L cells expressing M3 receptors; assay type: cell-based; settings: M3 receptors expressed in A9 L cells
T4 construct: expressed in transfected cells; host or cells: A9 L cells
Procedure: as §1

M5 receptors = target: T5, M5 receptors (Homo sapiens, UniProt P08912); experiment: PI metabolism in A9 L cells expressing M5 receptors; assay type: cell-based
T5 construct: expressed in transfected cells; host or cells: A9 L cells
T5 sequence (P08912 1-532): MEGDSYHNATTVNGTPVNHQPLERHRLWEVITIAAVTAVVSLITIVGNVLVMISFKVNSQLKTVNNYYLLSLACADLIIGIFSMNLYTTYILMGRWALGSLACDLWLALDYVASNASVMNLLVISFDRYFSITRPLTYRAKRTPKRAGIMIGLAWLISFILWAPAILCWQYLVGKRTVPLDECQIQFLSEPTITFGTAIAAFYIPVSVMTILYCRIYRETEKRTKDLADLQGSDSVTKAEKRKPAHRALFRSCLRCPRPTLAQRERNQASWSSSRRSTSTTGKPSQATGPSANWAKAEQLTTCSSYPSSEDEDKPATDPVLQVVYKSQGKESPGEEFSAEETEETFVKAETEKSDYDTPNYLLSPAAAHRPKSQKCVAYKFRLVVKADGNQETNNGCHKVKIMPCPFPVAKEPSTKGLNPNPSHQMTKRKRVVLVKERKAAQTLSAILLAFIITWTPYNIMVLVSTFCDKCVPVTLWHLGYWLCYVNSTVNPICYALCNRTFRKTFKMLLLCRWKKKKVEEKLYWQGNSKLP
Procedure: as §1

[2] = tested on: rats with impaired cholinergic function; settings: Messer et al. 2002; cited from earlier work
[3] = read-out: EC50, stimulation of PI metabolism

T4 sequence (P20309 whole entry): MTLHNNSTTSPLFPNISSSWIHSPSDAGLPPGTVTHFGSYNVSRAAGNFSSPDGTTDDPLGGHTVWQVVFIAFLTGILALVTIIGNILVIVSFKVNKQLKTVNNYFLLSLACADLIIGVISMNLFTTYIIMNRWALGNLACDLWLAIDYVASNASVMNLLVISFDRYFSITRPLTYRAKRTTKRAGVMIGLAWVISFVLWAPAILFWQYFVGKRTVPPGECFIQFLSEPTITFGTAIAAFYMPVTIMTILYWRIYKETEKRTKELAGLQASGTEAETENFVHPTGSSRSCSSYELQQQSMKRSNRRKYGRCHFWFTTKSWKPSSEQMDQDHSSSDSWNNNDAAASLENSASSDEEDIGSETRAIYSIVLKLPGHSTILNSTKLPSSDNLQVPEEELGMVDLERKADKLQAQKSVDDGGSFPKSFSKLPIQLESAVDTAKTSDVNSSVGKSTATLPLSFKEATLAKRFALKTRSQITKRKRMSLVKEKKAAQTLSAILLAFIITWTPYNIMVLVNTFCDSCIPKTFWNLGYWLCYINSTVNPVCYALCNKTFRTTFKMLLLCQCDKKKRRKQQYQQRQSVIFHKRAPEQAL

pEC50 (M1 receptors; [3]): 4.89 | PI metabolism, % of the carbachol response (M1 receptors; relative to full agonist carbachol): 46% | Inhibition of adenylyl cyclase activity (M4 receptors): inactive | Inhibition of adenylyl cyclase activity (M2 receptors): inactive | pEC50 (M3 receptors; [3]): 5.00 | PI metabolism, % of the carbachol response (M3 receptors; relative to carbachol): 6.6% | Activity in PI metabolism (M5 receptors; M5 receptors expressed at low levels in A9 L cells): not active | pEC50 (M5 receptors; higher levels of M5 receptor expression in A9 L cells, read-out: EC50, stimulation of PI metabolism): 5.12 | PI metabolism, % of the carbachol response (M5 receptors; higher levels of M5 receptor expression in A9 L cells, relative to carbachol): 28%
Structure (SMILES): CCc1noc(C2CN=CNC2)n1 (centres unmarked) [CDD-0102, 5-(3-ethyl-1,2,4-oxadiazol-5-yl)-1,4,5,6-tetrahydropyrimidine]
Side effect profile in vivo [1]: low side effect profile | Memory deficits [2]: reverses memory deficits
